In patent US20150291610A1, “C20' Urea Derivatives of Vinca Alkaloids” (THE SCRIPPS RESEARCH INSTITUTE, priority 2012, published 2015):
Like-named read-outs stand apart in the source and are kept apart here.

Key:
[1] = test system: HCT116 (human colorectal carcinoma) cells; assay: Cell growth inhibition assay, HCT116; assay type: cell-based
Protocol: (§1) A population of cells (>1×10^6 cells/mL as determined with a hemocytometer) was diluted with an appropriate amount of Dulbecco-modified Eagle Medium (DMEM, Gibco) containing 10% fetal bovine serum (FBS, Gibco) to a final concentration of 30,000 cells/mL.
(§2) To each well of a 96-well plate (Corning Costar), 100 μL of the cell-media solution was added with a multichannel pipette. The cultures were incubated at 37° C. in an atmosphere of 5% CO2 and 95% humidified air for 24 hours. The test compounds were added to the plate as follows: test substances were diluted in DMSO to a concentration of 1 mM and 10-fold serial dilutions were performed on a separate 96-well plate. Fresh culture medium (100 μL) was added to each well of cells to constitute 200 μL of medium per well followed by 2 μL of each test agent. Compounds were tested in duplicate (n=2-8 times) at six concentrations between 0-1,000 nM or 0-10,000 nM. Following addition, cultures were incubated for an additional 72 hours.
(§3) The plates were incubated at 37° C. for either 5 minutes (L1210) or 15 minutes (HCT116 and HCT116/VM46).

[2] = test system: HCT116/VM46 (vinblastine-resistant strain of HCT116, Pgp over-expression) cells; assay: Cell growth inhibition assay, HCT116/VM46
Protocol: as §1, §2, §3

[3] = test system: HCT116 (human colorectal carcinoma) cells; conditions: reported in Leggans et al., Org. Lett. 2012; cited from earlier work
[4] = test system: HCT116/VM46 (vinblastine-resistant strain of HCT116, Pgp over-expression) cells; conditions: read-out: IC50 (nM) HCT116/VM46; reported in Leggans et al., Org. Lett. 2012; cited from earlier work
[5] = test system: L1210 (mouse lymphocytic leukemia) cells; conditions: reported in Leggans et al., Org. Lett. 2012; cited from earlier work
[6] = test system: L1210 (mouse lymphocytic leukemia) cells; assay: Cell growth inhibition assay, L1210; assay type: cell-based; conditions: L1210 murine leukemia cell line; avg of 4-16 determinations
Protocol: as §1, §2, §3

porcine tubulin = molecular target: T1, porcine tubulin (Sus scrofa, UniProt P02550+P02554); assay type: binding; conditions: for tubulin binding affinity compared with vinblastine: in words
T1 construct: purified porcine tubulin; purchased Cytoskeleton, Inc
Source text: [Owellen et al., Biochem. Pharmacol. 1977 26:1213-1219.] […] Millipore Steriflip® filter units were used to wash the filter paper with buffer under mild suction.

[7] = HCT116 human colon cancer cell line, avg of 4-16 determinations, read-out: IC50 (nM) HCT116
[8] = read-out: IC50 (nM) HCT116/VM46, resistant human colon cancer cell line, Pgp over-expression

T1 sequence (P02550 whole entry): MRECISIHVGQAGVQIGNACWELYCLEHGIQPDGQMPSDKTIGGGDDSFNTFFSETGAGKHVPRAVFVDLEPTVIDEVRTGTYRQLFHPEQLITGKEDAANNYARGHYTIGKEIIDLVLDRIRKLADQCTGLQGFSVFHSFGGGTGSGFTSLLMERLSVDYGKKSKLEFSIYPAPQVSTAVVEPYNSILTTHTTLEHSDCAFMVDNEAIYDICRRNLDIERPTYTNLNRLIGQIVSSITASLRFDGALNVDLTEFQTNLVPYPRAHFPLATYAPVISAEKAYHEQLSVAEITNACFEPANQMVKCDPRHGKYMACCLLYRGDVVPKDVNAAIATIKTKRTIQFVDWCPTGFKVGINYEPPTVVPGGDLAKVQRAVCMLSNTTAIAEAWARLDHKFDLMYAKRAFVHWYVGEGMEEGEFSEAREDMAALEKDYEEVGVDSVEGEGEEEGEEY
T1 sequence (P02554 whole entry): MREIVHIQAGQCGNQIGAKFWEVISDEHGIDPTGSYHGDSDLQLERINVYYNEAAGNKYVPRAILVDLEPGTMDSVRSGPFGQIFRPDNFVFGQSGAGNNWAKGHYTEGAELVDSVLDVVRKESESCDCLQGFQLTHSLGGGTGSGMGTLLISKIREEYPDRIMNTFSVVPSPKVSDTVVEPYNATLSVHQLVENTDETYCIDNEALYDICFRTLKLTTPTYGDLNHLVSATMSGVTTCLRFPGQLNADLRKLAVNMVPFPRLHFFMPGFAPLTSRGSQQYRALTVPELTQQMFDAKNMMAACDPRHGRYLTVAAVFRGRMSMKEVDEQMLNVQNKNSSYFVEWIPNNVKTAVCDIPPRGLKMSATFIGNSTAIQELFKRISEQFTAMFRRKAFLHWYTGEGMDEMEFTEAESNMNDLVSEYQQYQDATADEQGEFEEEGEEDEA

In the case of `CC[C@]1(N)C[C@H]2CN(CCc3c([nH]c4ccccc34)[C@@](C(=O)OC)(c3cc4c(cc3OC)N(C)[C@H]3[C@@](O)(C(=O)OC)[C@H](OC(C)=O)[C@]5(CC)C=CCN6CC[C@]43[C@@H]65)C2)C1` [Compound 7, 20′-aminovinblastine], the IC50 [1, 7] is listed as 600 nM, the IC50 [2, 8] is listed as greater than 10000 nM and the IC50 [3] is listed as 600 nM. For the same compound, the IC50 [4] was greater than 10000 nM and the IC50 [5] was 640 nM.

Compound `CC[C@]1(NC(N)=O)C[C@@H]2CN(CCc3c([nH]c4ccccc34)[C@@](C(=O)OC)(c3cc4c(cc3OC)N(C)[C@H]3[C@@](O)(C(=O)OC)[C@H](OC(C)=O)[C@]5(CC)C=CCN6CC[C@]43[C@@H]65)C2)C1` [Compound 11, reference compound] has an IC50 [1, 7] of 7.5 nM, an IC50 [2] of 4400 nM and an IC50 [6] of 40 nM. For the same compound, the IC50 [3] was 7.5 nM, the IC50 [4] was 4400 nM and the IC50 [5] was 40 nM.

In the case of `CC[C@]1(NC(N)=S)C[C@@H]2CN(CCc3c([nH]c4ccccc34)[C@@](C(=O)OC)(c3cc4c(cc3OC)N(C)[C@H]3[C@@](O)(C(=O)OC)[C@H](OC(C)=O)[C@]5(CC)C=CCN6CC[C@]43[C@@H]65)C2)C1` [Compound 12], the IC50 [1, 7] is given as 7.7 nM, the IC50 [2, 8] is given as 2000 nM and the IC50 [3] is given as 7.7 nM. The IC50 [4] was 2000 nM and the IC50 [5] was 55 nM.

In the case of `CCC1(NC(=O)Nc2ccc(-c3ccccc3)cc2)C[C@H]2CN(CCc3c([nH]c4ccccc34)[C@@](C(=O)OC)(c3cc4c(cc3OC)N(C)[C@H]3C(O)(C(=O)OC)[C@H](OC(C)=O)[C@]5(CC)C=CCN6CC[C@]43[C@@H]65)C2)C1` (stereo partly drawn) [Compound 35], the IC50 ([1]; Homo sapiens, HCT-116, read-out: IC50 (nM) HCT116) is reported as 6.9 nM, the IC50 ([2]; Homo sapiens, HCT-116/VM46, read-out: IC50 (nM) HCT116/VM46) is reported as 470 nM and the “tubulin binding affinity compared with vinblastine” value (porcine tubulin) is reported as “affinity matching or even slightly exceeding that of vinblastine”. The “% ^3H-vinblastine remaining bound” value (porcine tubulin; ligand vs [^3H]VBL (1:1), normalized to VLB + [^3H]VLB = 50.0%) was 48.5 ± 6.9%.

For `CCC1(NC(=O)N(C)C)CC2CN(CCc3c([nH]c4ccccc34)C(C(=O)OC)(c3cc4c(cc3OC)N(C)C3C(O)(C(=O)OC)C(OC(C)=O)C5(CC)C=CCN6CCC43C65)C2)C1` (stereo not drawn) [Compound 39], the IC50 [1, 7] was 2.8 nM, the “fold more potent than vinblastine, HCT116” value ([1]; relative to vinblastine) was 3 fold and the “activity difference between sensitive HCT116 and vinblastine-resistant HCT116/VM46” value ([2]; HCT116/VM46 vs HCT116) was 10 fold. For the same compound, the IC50 [2, 8] was 80 nM, the IC50 [6] was 5.9 nM and the “% ^3H-vinblastine remaining bound” value (porcine tubulin) was 45.1 ± 3.5%. The “tubulin binding affinity compared with vinblastine” value (porcine tubulin) was “slightly better affinity than vinblastine”.

For `CCC1(NC=O)CC2CN(CCc3c([nH]c4ccccc34)C(C(=O)OC)(c3cc4c(cc3OC)N(C)C3C(O)(C(=O)OC)C(OC(C)=O)C5(CC)C=CCN6CCC43C65)C2)C1` (stereo not drawn) [NHCHO], the IC50 [3] is listed as 85 nM, the IC50 [4] is listed as 6500 nM and the IC50 [5] is listed as 65 nM.
